# Literature values, collected in patent US6689400B2, “Process of obtaining compositions of stable lutein and lutein derivatives” (Sabinsa Corporation, priority 2001, dated 2004).
# Columns and labels:
# [1] = room temperature or higher
# [2] = exposure to white fluorescent light, carefully controlled conditions
structure (smiles),measurement,setting,value
CC1=C[C@H](O)CC(C)(C)[C@H]1/C=C/C(C)=C/C=C/C(C)=C/C=C/C=C(C)/C=C/C=C(C)/C=C/C1=C(C)C[C@@H](O)CC1(C)C [lutein],stability,[1],not stable
same,degradation of lutein,[2],0.8-10.7 % per day
